Assay results reported in US20230025510A1, “BIARYL ETHER-TYPE QUINAZOLINE DERIVATIVES” (DAIICHI SANKYO COMPANY, LIMITED, priority 2018, published 2023).

Tests used:
Assay type in all cases: cell-based
Ba/F3-Mock cells = experiment: Cell proliferation suppression test (CellTiter-Glo, GI50), Ba/F3-Mock; settings: Mus musculus, BaF3, 72 h, 5 ng/mL IL-3, 3 days, N=4
Experimental: (§1) Cell proliferation suppression test Ba/F3-Mock, Ba/F3-EGFR WT, Ba/F3-EGFR ins. ASV, and Ba/F3-EGFR ins. SVD cell lines were cultured based on a culture medium of 10% FBS-containing RPMI 1640 supplemented with 1.5 ug/mL puromycin, and 5 ng/mL IL-3 and 100 ng/mL of EGF were further added to the culture solution for Ba/F3-Mock and Ba/F3-EGFR WT, respectively. The cells were cultured in a CO2 incubator set at 37° C., 5% CO2. Specimens prepared by dilution were seeded into 384-well tissue culture plates with Echo555 (Labcyte Inc.), and the cells were seeded thereto at 400 cells/well for Ba/F3-Mock, Ba/F3-EGFR WT, and Ba/F3-EGFR ins. SVD and at 200 cells/well for Ba/F3-EGFR ins. ASV (day 0), then they were cultured for an additional 3 days. On the day of the compound addition (day 0) and 3 days after the compound addition (day 3), ATP quantity was measured with CellTiter-Glo (registered trademark) 2.0 (Promega Corporation.), and used as an indicator of cell quantity (N=4). In the test, puromycin-free culture medium was used. Concentrations at which cell proliferation from day 0 to day 3 was inhibited by 50% (GIso) were calculated with EXCEL.

[1] = tested on: Ba/F3-EGFR ins. ASV cells; experiment: Cell proliferation suppression test (CellTiter-Glo, GI50), Ba/F3-EGFR ins. ASV; settings: Mus musculus, 72 h, 3 days, N=4
Experimental: as §1

[2] = tested on: Ba/F3-EGFR ins. SVD cells; experiment: Cell proliferation suppression test (CellTiter-Glo, GI50), Ba/F3-EGFR ins. SVD; settings: Mus musculus, 72 h, 3 days, N=4
Experimental: as §1

Ba/F3-EGFR WT cells = experiment: Cell proliferation suppression test (CellTiter-Glo, GI50), Ba/F3-EGFR WT; settings: Mus musculus, 72 h, 100 ng/mL EGF, 3 days, N=4
Experimental: as §1

Row | Compound | GI50 (Ba/F3-Mock cells) [nM] | GI50 [1] [nM] | GI50 [2] [nM] | GI50 (Ba/F3-EGFR WT cells) [nM]
1 | C=CC(=O)N1CCC(Oc2cc3c(Nc4ccc(Oc5cccc(-c6nnc(C)o6)c5)cc4F)ncnc3cc2OCF)CC1 [Example 19, 1-(4-{[7-(Fluoromethoxy)-4-{2-fluoro-4-[3-(5-methyl-1,3,4-oxadiazol-2-yl)phenoxy]anilino}quinazolin-6-yl]oxy}piperidin-1-yl)prop-2-en-1-one] | 4920 | 23.5 | 20.2 | 386
2 | [2H]C([2H])([2H])Oc1cc2ncnc(Nc3ccc(Oc4ccn(C(=O)NC(C)(C)C)n4)cc3F)c2cc1OC1CCN(C(=O)C=C)CC1 [Example 20, N-tert-Butyl-3-{3-fluoro-4-[(7-[(^2H3)methyloxy]-6-{[1-(prop-2-enoyl)piperidin-4-yl]oxy}quinazolin-4-yl)amino]phenoxy}-1H-pyrazole-1-carboxamide] | > 10000 | 18.6 | 9 | 171
3 | [2H]C([2H])([2H])Oc1cc2ncnc(Nc3ccc(Oc4ccn(C(=O)NC(C([2H])([2H])[2H])(C([2H])([2H])[2H])C([2H])([2H])[2H])n4)cc3F)c2cc1OC1CCN(C(=O)C=C)CC1 [Example 21, 3-{3-Fluoro-4-[(7-[(^2H3)methyloxy]-6-{[1-(prop-2-enoyl)piperidin-4-yl]oxy}quinazolin-4-yl)amino]phenoxy}-N-[2-(^2H3)methyl(^2H6)propan-2-yl]-1H-pyrazole-1-carboxamide] | 7990 | 12.1 | 7.3 | 129
4 | C=CC(=O)N1CCC(Oc2cc3c(Nc4ccc(Oc5ccn(C(=O)NC6(C(F)(F)F)CC6)n5)cc4F)ncnc3cc2OC)CC1 [Example 22, 3-{3-Fluoro-4-[(7-methoxy-6-{[1-(prop-2-enoyl)piperidin-4-yl]oxy}quinazolin-4-yl)amino]phenoxy}-N-[1-(trifluoromethyl)cyclopropyl]-1H-pyrazole-1-carboxamide] | 8620 | 14.5 | 12.8 | 102
5 | C=CC(=O)N1CCC(Oc2cc3c(Nc4ccc(Oc5ccn(C(=O)NC(C)(CF)CF)n5)cc4F)ncnc3cc2OC)CC1 [Example 23, N-(1,3-Difluoro-2-methylpropan-2-yl)-3-{3-fluoro-4-[(7-methoxy-6-{[1-(prop-2-enoyl)piperidin-4-yl]oxy}quinazolin-4-yl)amino]phenoxy}-1H-pyrazole-1-carboxamide] | 5530 | 12.4 | 10.9 | 110
6 | C=CC(=O)N1CCC(Oc2cc3c(Nc4ccc(Oc5ccn(C(=O)N[C@H](C)C(F)(F)F)n5)cc4F)ncnc3cc2OC)CC1 [Example 24, 3-{3-Fluoro-4-[(7-methoxy-6-{[1-(prop-2-enoyl)piperidin-4-yl]oxy}quinazolin-4-yl)amino]phenoxy}-N-[(2R)-1,1,1-trifluoropropan-2-yl]-1H-pyrazole-1-carboxamide] | 6470 | 11.8 | 9.9 | 42.4
7 | [2H]C([2H])([2H])C(NC(=O)n1ccc(Oc2ccc(Nc3ncnc4cc(OC)c(OC5CCN(C(=O)C=C)CC5)cc34)c(F)c2)n1)(C([2H])([2H])[2H])C([2H])([2H])[2H] [Example 25, 3-{3-Fluoro-4-[(7-methoxy-6-{[1-(prop-2-enoyl)piperidin-4-yl]oxy}quinazolin-4-yl)amino]phenoxy}-N-[2-(^2H3)methyl(^2H6)propan-2-yl]-1H-pyrazole-1-carboxamide] | > 10000 | 18.8 | 12.4 | 180
8 | COc1cc2ncnc(Nc3ccc(Oc4ccn(C(=O)N5CCCC5)n4)cc3F)c2cc1NC(=O)/C=C/CN(C)C [Example 26, (2E)-4-(Dimethylamino)-N-[4-(2-fluoro-4-{[1-(pyrrolidin-1-ylcarbonyl)-1H-pyrazo1-3-yl]oxy}anilino)-7-methoxyquinazolin-6-yl]but-2-enamide] | 1060 | 17.5 | 53.7 | 191
9 | C=CC(=O)N1CCC(Oc2cc3c(Nc4ccc(Oc5ccn(-c6cnc(C)c(F)c6)n5)cc4F)ncnc3cc2OC)CC1 [Example 27, 1-(4-{[4-(2-Fluoro-4-{[1-(5-fluoro-6-methylpyridin-3-yl)-1H-pyrazol-3-yl]oxy}anilino)-7-methoxyquinazolin-6-yl]oxy}piperidin-1-yl)prop-2-en-1-one] | 8690 | 11.6 | 11.1 | 249
10 | C=CC(=O)N1CCC(Oc2cc3c(Nc4ccc(Oc5ccn(-c6ccc(C)nc6)n5)cc4F)ncnc3cc2OC)CC1 [Example 28, 1-(4-{[4-(2-Fluoro-4-{[1-(6-methylpyridin-3-yl)-1H-pyrazol-3-yl]oxy}anilino)-7-methoxyquinazolin-6-yl]oxy}piperidin-1-yl)prop-2-en-1-one] | 8370 | 12.4 | 12.1 | 290
11 | C=CC(=O)N1CCC(Oc2cc3c(Nc4ccc(Oc5ccn(-c6ccnc(Cl)c6)n5)cc4F)ncnc3cc2OC)CC1 [Example 29, 1-(4-{[4-(4-{[1-(2-Chloropyridin-4-yl)-1H-pyrazol-3-yl]oxy}-2-fluoroanilino)-7-methoxyquinazolin-6-yl]oxy}piperidin-1-yl)prop-2-en-1-one] | > 10000 | 11.3 | 7.9 | 157
12 | C=CC(=O)N1CCC(Oc2cc3c(Nc4ccc(Oc5ccn(-c6ccnc(F)c6)n5)cc4F)ncnc3cc2OC)CC1 [Example 30, 1-(4-{[4-(2-Fluoro-4-{[1-(2-fluoropyridin-4-yl)-1H-pyrazol-3-yl]oxy}anilino)-7-methoxyquinazolin-6-yl]oxy}piperidin-1-yl)prop-2-en-1-one] | > 10000 | 13.5 | 14 | 121
13 | C=CC(=O)N1CCC(Oc2cc3c(Nc4ccc(Oc5ccn(-c6ccc(C7CC7)nc6)n5)cc4F)ncnc3cc2OC)CC1 [Example 31] | > 10000 | 15.5 | 12.8 | 241
14 | C=CC(=O)N1CCC(Oc2cc3c(Nc4ccc(Oc5ccn(-c6ccc(F)nc6)n5)cc4F)ncnc3cc2OC)CC1 [Example 32] | > 10000 | 11.9 | 12.7 | 162
15 | C=CC(=O)N1CCC(Oc2cc3c(Nc4ccc(Oc5nc(-c6nnc(C(C)C)o6)cs5)cc4F)ncnc3cc2OC)CC1 [Example 33, 1-[4-({4-[2-Fluoro-4-({4-[5-(propan-2-yl)-1,3,4-oxadiazol-2-yl]-1,3-thiazol-2-yl}oxy)anilino]-7-methoxyquinazolin-6-yl}oxy)piperidin-1-yl]prop-2-en-1-one] | > 10000 | 11.3 | 5.8 | 163
16 | C=CC(=O)N1CCC(Oc2cc3c(Nc4ccc(Oc5nc(-c6ccc(CC)nc6)cs5)cc4F)ncnc3cc2OC)CC1 [Example 34, 1-(4-{[4-(4-{[4-(6-Ethylpyridin-3-yl)-1,3-thiazol-2-yl]oxy}-2-fluoroanilino)-7-methoxyquinazolin-6-yl]oxy}piperidin-1-yl)prop-2-en-1-one] | > 10000 | 20.5 | 13.7 | 276
17 | C=CC(=O)N1CCC(Oc2cc3c(Nc4ccc(Oc5nc(-c6ccc(OC)nc6)cs5)cc4F)ncnc3cc2OC)CC1 [Example 35, 1-(4-{[4-(2-Fluoro-4-{[4-(6-methoxypyridin-3-yl)-1,3-thiazol-2-yl]oxy}anilino)-7-methoxyquinazolin-6-yl]oxy}piperidin-1-yl)prop-2-en-1-one] | > 10000 | 14.8 | 12.9 | 213
18 | C=CC(=O)N1CCC(Oc2cc3c(Nc4ccc(Oc5nc(-c6cnc(C)nc6)cs5)cc4F)ncnc3cc2OC)CC1 [Example 36, 1-(4-{[4-(2-Fluoro-4-{[4-(2-methylpyrimidin-5-yl)-1,3-thiazol-2-yl]oxy}anilino)-7-methoxyquinazolin-6-yl]oxy}piperidin-1-yl)prop-2-en-1-one] | > 10000 | 12 | 10 | 377
19 | C=CC(=O)N1CCC(Oc2cc3c(Nc4ccc(Oc5nc(-c6ccc(C)nc6)cs5)cc4F)ncnc3cc2OC)CC1 [Example 37, 1-(4-{[4-(2-Fluoro-4-{[4-(6-methylpyridin-3-yl)-1,3-thiazol-2-yl]oxy}anilino)-7-methoxyquinazolin-6-yl]oxy}piperidin-1-yl)prop-2-en-1-one] | > 10000 | 10.5 | 5.7 | 163
20 | C=CC(=O)N1CCC(Oc2cc3c(Nc4ccc(Oc5nc(-c6cncc(F)c6)cs5)cc4F)ncnc3cc2OC)CC1 [Example 38, 1-(4-{[4-(2-Fluoro-4-{[4-(5-fluoropyridin-3-yl)-1,3-thiazol-2-yl]oxy}anilino)-7-methoxyquinazolin-6-yl]oxy}piperidin-1-yl)prop-2-en-1-one] | > 10000 | 17 | 18.3 | 174
